Data taken from US10149644B2, “Curcumin derivatives for amyloid-β plaque imaging” (The General Hospital Corporation, priority 2008, dated 2018).
Entries after “also recorded” stand apart in the source; their conditions may differ.

Tests used:
[1] = Fluorescence emission properties of the probes; format: physicochemical
Method: Reagents used for synthesis were purchased from Aldrich without further purification. Column chromatography was performed on silica gel (SiliCycle Inc., 60 Å, […]) slurry packed into glass columns. Thioflavin S was purchased from Aldrich. Synthetic amyloid-b protein (1-40) was purchased from rPeptide (Bogart, Ga., 30622) and aggregates for in vitro studies were generated followed the reported procedure. BSA was purchased from Sigma, and human serum was obtained from Invitrogen (type AB). ^1H and ^13C NMR spectra were recorded at 400 MHz and 100 MHz respectively, and are reported in ppm downfield from tetramethylsilane. Fluorescence studies were carried out with F-4500 Fluorescense Spectrophotometer. Fluorescence quantum yields were determined using aqueous solution of Cy5.5-maleimide as a standard (y=0.23). High resolution mass spectra were obtained at the Harvard University, Department of Chemistry Instrumentation Facility. Transgenic Tg2576 mice {45} and littermates were purchased from Taconic Farm, Balb/c mice for BBB penetrating test were obtained from Jackson Laboratory, and the experiment procedure was approved by Massachusetts General Hospital. In vivo imaging was recorded on Kodak Imaging Station 2000MM.
Furthermore, by comparing the fluorescence intensity in methanol, the quantum yield of CRANAD-2 was significant higher than that of curcumin (FIG. 2). […] Additionally, these modifications produced a large stokes shift and improved quantum yield of CRANAD-2. The synthesized compound produced the longest emission and the largest stokes shift among the existing probes for senile plaque detection {3}.

[2] = tested on: Tg2576 mice; assay: In vivo NIR imaging
Method: In vivo NIR imaging was performed using Kodak Imaging station 2000MM. For fluorescence excitation, three laser diodes at 660 nm with a total power of 10 mW/cm2 have been used yielding a uniform illumination of the whole animal. The fluorescent light emitted from the sample (mouse) was detected by a charge-coupled device (CCD) camera (Hamamatsu ORCA) equipped with a focusing lens system (macro lens 60 mm, 1:2.8, Nikon). The image matrix comprised of 532×256 pixels. A bandpass filter was used for the selection of the detection wavelength (700 nm). Integration time default was selected at 30 s. Images were acquired Kodak 1DTM 3.6.3 Network software and analysed using the Kodak™ 1D Analysis software.
Mice (n=3 for Tg2576 and n=3 for the littermates) were shaved before background imaging, and were i.v. injected CRANAD-2 (5.0 mg/kg) for each mouse. Fluorescence signals from the brain were recorded at pre-injection, and 10 min., 30 min., 60 min., 120 min., 240 min., and 480 min. after intravenous injection of the probe. To evaluate our imaging results, an ROI was drawn around the brain region, and the data were analyzed by the following modified equation (1) {24}, where Irel(t) is the relative fluorescence intensity at the certain time point, I(t) is the measured ROI value at this time point, I(pre) is the pre-injection background, and I(30) is the reading at 30 min. Since pre-injection background varied in different mice, this equation allowed us to correct for it. Fluorescence intensity decay curves were then generated based on this equation. Irel(t)=(I(t)−I(pre))/(I(30)−I(pre)) (1)
For in vivo specific binding (SP), the calculation was based on equation (2), where Irel(tg) is the relative fluorescence intensity of Tg2576, and Irel(contr) is the relative fluorescence intensity of the control littermates. P values were calculated by Student test. SP(t)={Irel(tg)−Irel(contr)}/Irel(tg) (2) Ex Vivo Histological Correlation.
Transgenic 11-month and 19-month old Tg2576 mice were used to validate the feasibility of CRANAD-2 as NIR imaging probe. Aged-matched wild type littermates served as controls. Images were recorded before and after i.v. injection of CRANAD-2 at 5.0 mg/Kg dosage. […] Furthermore, the signals from 19-month old Tg2576 (FIG. 11D) were remarkably brighter at all time points.
Semi-quantitative analysis of these images was conducted with selected region of interested (ROI), and two sets of data were generated. By normalizing the fluorescence intensity to that of 30 min. after the injection of the probe, we were able to create four well-fit decay curves with non-linear regression for two binding site model (Prism 3.0) for both 11- and 19-months old groups (R2=0.96, 0.97, 0.97, and 0.94 for 11-month control, tg2576, and 19-month control and tg2576 respectively) (FIG. 9A). By normalizing the signal to background fluorescence intensity (Fpre), and using the ratio between fluorescence intensity at time points studied ((F(t)) and Fpre) we could compare the signal change in Tg2576 group to that of the control group (FIGS. 9B,C)(e.g. F(t)/Fpre). Details of these methods are described in Materials and Methods contained herein.

[3] = target: T1, BSA (Bos taurus, UniProt P02769); assay: BSA interaction; format: binding; details: BSA 20 μg/mL, probe 5 μM
T1 construct: purchased Sigma
T1 sequence (P02769 25-607): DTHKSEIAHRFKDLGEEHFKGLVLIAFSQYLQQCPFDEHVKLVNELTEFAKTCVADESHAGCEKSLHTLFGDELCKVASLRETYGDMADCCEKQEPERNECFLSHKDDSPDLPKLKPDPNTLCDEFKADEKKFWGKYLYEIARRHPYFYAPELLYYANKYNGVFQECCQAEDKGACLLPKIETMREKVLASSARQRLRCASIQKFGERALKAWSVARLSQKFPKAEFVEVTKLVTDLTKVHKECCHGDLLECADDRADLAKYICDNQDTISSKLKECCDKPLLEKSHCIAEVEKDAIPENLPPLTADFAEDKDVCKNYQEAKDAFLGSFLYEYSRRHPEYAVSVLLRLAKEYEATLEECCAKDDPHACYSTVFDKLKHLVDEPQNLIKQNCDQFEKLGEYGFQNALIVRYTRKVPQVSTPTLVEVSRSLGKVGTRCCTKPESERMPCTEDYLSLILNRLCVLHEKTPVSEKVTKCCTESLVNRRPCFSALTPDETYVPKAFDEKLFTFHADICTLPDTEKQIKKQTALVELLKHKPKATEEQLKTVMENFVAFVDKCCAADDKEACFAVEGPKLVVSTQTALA
Method: CRANAD-2 was added to a BSA (20 μg/mL) solution to make the final concentration of 5 μM. The fluorescence spectrum of the above mixture was recorded (excited at 590 nm). For comparisons, CRANAD-2 (5 μM) in PBS, PBS alone, and Aβ40 aggregates ([…]) and CRANAD-2 (5 μM) were prepared.
Since serum albumin is the most abundant plasma protein, it was important to test whether the probe had any affinity toward this protein. To test this the inventors incubated CRANAD-2 probe with BSA. For controls, the inventors used PBS buffer alone, the probe incubated in PBS alone, and with Aβ40 aggregates. […] In addition, the inventors tested CRANAD-2 stability by incubating the probe (4×10^−6M) with human serum for 2 hours at 37° C.

**Q.** Which results are given for CN(C)c1ccc(/C=C/C2=CC(/C=C/c3ccc(N(C)C)cc3)=[O+][B-](F)(F)O2)cc1 [CRANAD-2]?
**A.** Stoke shift in PBS ([1]; PBS only): 140 nm; Stoke shift in PBS with Aβ aggregates ([1]; PBS with Aβ aggregates): 70 nm; λmax(em) ([1]; probe alone, methanol (FIG. 2)): 760 nm; λmax(ex) ([1]; probe alone, methanol (FIG. 2)): 640 nm; Declining of brain fluorescence signals, Tg2576 vs control ([2]; 5.0 mg/kg i.v., 11- and 19-month old): considerably slower; Difference in F(t)/Fpre, Tg2576 vs control ([2]; 11-month old, 120 min): 0.52; Difference in relative fluorescence decay Irel(t), Tg2576 vs control ([2]; 11-month old, 120 min, 5.0 mg/kg i.v.): 23%; Difference in F(t)/Fpre, Tg2576 vs control ([2]; 11-month old, 240 min): 0.45; Difference in relative fluorescence decay Irel(t), Tg2576 vs control ([2]; 11-month old, 240 min, 5.0 mg/kg i.v.): 16%; Difference in F(t)/Fpre, Tg2576 vs control ([2]; 19-month old, 120 min): 0.43; Difference in relative fluorescence decay Irel(t), Tg2576 vs control ([2]; 19-month old, 120 min, 5.0 mg/kg i.v.): 20%; Difference in F(t)/Fpre, Tg2576 vs control ([2]; 19-month old, 240 min): 0.65; Difference in relative fluorescence decay Irel(t), Tg2576 vs control ([2]; 19-month old, 240 min, 5.0 mg/kg i.v.): 30%; Fluorescence intensity, transgenic vs control groups ([2]; 30, 60, 120 and 240 min after injection): higher than that of the control groups; Slower decay rate, 19-month vs 11-month old Tg2576 ([2]; 120 min): 11%; "Smart" amplification factor in vivo (ratio>1.0 = smart) ([2]; 120 min and 240 min, 11- and 19-month groups): “smart” probe in vivo; Slower decay rate, 19-month vs 11-month old Tg2576 ([2]; 240 min): 13%; Binding to BSA / fluorescence change with BSA [3]: did not observe any significant change in fluorescence; also recorded: did not show any significant binding; also recorded: does not show any significant binding
